For 32 molecules, IC50 results are on record in patent US11964953B2, “Substituted aminothiazoles as DGKzeta inhibitors for immune activation” (Bayer Aktiengesellschaft, priority 2020, dated 2024).

The target in the first assay is human DGKζ (Homo sapiens (Human), UniProt Q13574). Description: Human DGKζ kinase activity inhibition assay (ADP-Glo). The class given is biochemical. The settings on record: IC50, in vitro human DGKζ kinase activity inhibition assay. The essentials: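 Enzyme was C-terminally FLAG-tagged full-length recombinant human DGKζ from baculovirus-infected insect cells. Substrate preparation used octyl-β-D-glucopyranoside in 50 mM MOPS pH 7.4 with sonication; ADP generated was quantified by ADP-Glo luminescence as activity measure.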
Chain of human DGKζ (Q13574 other isoform, or with tags, fused parts or gaps): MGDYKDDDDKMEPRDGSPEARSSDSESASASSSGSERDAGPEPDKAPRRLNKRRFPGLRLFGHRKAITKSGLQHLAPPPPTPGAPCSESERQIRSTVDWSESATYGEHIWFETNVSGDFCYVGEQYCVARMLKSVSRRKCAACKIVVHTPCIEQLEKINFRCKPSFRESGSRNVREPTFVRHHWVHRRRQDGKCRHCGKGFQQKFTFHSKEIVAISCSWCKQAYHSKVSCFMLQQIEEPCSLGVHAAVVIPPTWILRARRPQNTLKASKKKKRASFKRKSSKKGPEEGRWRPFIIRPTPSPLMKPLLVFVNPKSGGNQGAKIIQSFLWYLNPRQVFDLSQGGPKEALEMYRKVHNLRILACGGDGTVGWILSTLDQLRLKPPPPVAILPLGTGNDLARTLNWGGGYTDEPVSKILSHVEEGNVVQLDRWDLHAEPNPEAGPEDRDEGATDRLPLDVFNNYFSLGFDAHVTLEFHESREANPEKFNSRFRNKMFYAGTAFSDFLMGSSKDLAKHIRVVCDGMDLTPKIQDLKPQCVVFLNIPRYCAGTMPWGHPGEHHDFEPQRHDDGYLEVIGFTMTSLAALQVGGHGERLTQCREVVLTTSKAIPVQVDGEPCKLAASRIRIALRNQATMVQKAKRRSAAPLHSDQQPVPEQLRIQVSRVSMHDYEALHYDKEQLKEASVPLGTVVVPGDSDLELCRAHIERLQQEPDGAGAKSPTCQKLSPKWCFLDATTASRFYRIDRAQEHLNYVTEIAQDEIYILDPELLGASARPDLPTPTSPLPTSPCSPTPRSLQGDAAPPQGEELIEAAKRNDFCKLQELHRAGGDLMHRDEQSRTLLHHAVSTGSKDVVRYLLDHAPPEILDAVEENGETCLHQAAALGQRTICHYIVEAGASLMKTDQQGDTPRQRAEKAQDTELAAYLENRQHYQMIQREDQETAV
For orientation: In ADP-Glo the light output rises with the ADP produced.
For the molecule `Cc1cccc(N(C)C(=O)COc2ccc(C(=O)c3sc(N(c4ccc(F)cc4)C(C)C(N)=O)nc3N)cc2)c1` (racemic) [Example 140, rac-2-(N-[4-amino-5-[4-[2-(N,3-dimethylanilino)-2-oxo-ethoxy]benzoyl]thiazol-2-yl]-4-fluoro-anilino)propanamide], the midpoint of inhibition, the IC50, lay at 37.5 nM.

The assay is the same for the next values; noted with them: in vitro human DGKζ kinase activity inhibition assay; read-out: IC50.
As for `CC(C(N)=O)N(c1ccc(F)cc1)c1nc(N)c(C(=O)c2ccc(I)cc2)s1` (racemic) [Example 171, rac-2-(N-[4-amino-5-(4-iodobenzoyl)thiazol-2-yl]4-fluoro-anilino)propanamide], the IC50 (as a rule, the midpoint of a concentration-inhibition curve) came out at 11 nM.
Turning to `CC(C(N)=O)N(c1ccc(OC(F)(F)F)cc1)c1nc(N)c(C(=O)c2ccc(F)cc2)s1` (racemic) [Example 27, rac-2-[N-[4-amino-5-(4-fluorobenzoyl)thiazol-2-yl]-4-(trifluoromethoxy)anilino]propanamide], the IC50 was determined as 69.6 nM.
The same measure, in the same setting: the same measure for `CC(C(N)=O)N(c1ccc(Cl)c(F)c1)c1nc(N)c(C(=O)c2ccc(OCc3ccccc3)cc2)s1` (single isomer, unassigned) [Example 166.2, 2-(N-[4-amino-5-(4-benzyloxybenzoyl)thiazol-2-yl]-4-chloro-3-fluoro-anilino)propanamide]: 129 nM; for `CC(C(N)=O)N(c1ccc(F)cc1)c1nc(N)c(C(=O)c2ccc(N3CCCC3)cc2)s1` (racemic) [Example 181, rac-2-(N-[4-amino-5-(4-pyrrolidin-1-ylbenzoyl)thiazol-2-yl]-4-fluoro-anilino)propanamide]: 65 nM.
In the case of `CC(C(N)=O)N(c1nc(N)c(C(=O)c2ccccc2)s1)c1ccc(F)cc1F` (racemic) [Example 65, rac-2-(N-(4-amino-5-benzoyl-thiazol-2-yl)-2,4-difluoro-anilino)propanamide], the IC50 was found to be 101 nM.
On to `COc1ccc(C(=O)c2sc(N(c3ccc(OC(F)(F)F)nc3)C(C)C(N)=O)nc2N)cc1` (racemic) [Example 248, rac-2-[[4-amino-5-(4-methoxybenzoyl)thiazol-2-yl]-[6-(trifluoromethoxy)-3-pyridyl]amino]propanamide], for which the IC50 worked out at 136 nM.
Same read-out and setting: the same measure for `CC(C(N)=O)N(c1ccc(C(F)(F)F)cc1)c1nc(N)c(C(=O)c2ccc(OC(F)F)cc2)s1` (single isomer, unassigned) [Example 43.1, 2-[N-[4-amino-5-[4-(difluoromethoxy)benzoyl]thiazol-2-yl)-4-(trifluoromethyl)anilino]propanamide]: 2730 nM.
Same read-out and setting: the same measure for `Cc1cccc(N(c2nc(N)c(C(=O)c3ccccc3)s2)C(C)C(N)=O)c1` (single isomer, unassigned) [Example 76.1, 2-(N-(4-amino-5-benzoyl-thiazol-2-yl)-3-methyl-anilino)propanamide]: 114 nM.
As for `COc1ccc(C(=O)c2sc(N(c3ccc(OC(F)(F)F)c(F)c3)C(C)C(N)=O)nc2N)cc1` (racemic) [Example 217, rac-2-[N-[4-amino-5-(4-methoxybenzoyl)thiazol-2-yl]-3-fluoro-4-(trifluoromethoxy)anilino]propanamide], the half-maximal inhibitory concentration (IC50) came to 41 nM.
For `CC(C(N)=O)N(c1ccc(F)cc1)c1nc(N)c(C(=O)c2ccc(OC(F)F)nc2)s1` (single isomer, unassigned) [Example 162.2, 2-(N-[4-amino-5-[6-(difluoromethoxy)pyridine-3-carbonyl]thiazol-2-yl]-4-fluoro-anilino)propanamide], the IC50 worked out at 6570 nM.
Consider `CC(C(N)=O)N(c1ccc(F)c(F)c1)c1nc(N)c(C(=O)c2ccc(NC(=O)OCc3ccccc3)cc2)s1` (single isomer, unassigned) [Example 167.2, Benzyl N-[4-[4-amino-2-(N-(2-amino-1-methyl-2-oxo-ethyl)-3,4-difluoro-anilino)thiazole-5-carbonyl]phenyl]carbamate], for which the IC50 was found to be 303 nM.
For `COc1ccc(C(=O)c2sc(N(c3ccc(F)c(Cl)c3)C(C)C(N)=O)nc2N)cc1` (single isomer, unassigned) [Example 161.2, 2-(N-[4-amino-5-(4-methoxybenzoyl)thiazol-2-yl]-3-chloro-4-fluoro-anilino)propanamide], the half-inhibitory concentration (IC50) stood at 2570 nM.
Consider `COc1ccc(N(c2nc(N)c(C(=O)c3ccccc3)s2)C(C)C(N)=O)cc1F` (racemic) [Example 191, rac-2-(N-(4-amino-5-benzoyl-thiazol-2-yl)-3-fluoro-4-methoxy-anilino)propanamide], for which the IC50 came out at 356 nM.
Still for that read-out and setting: the same measure for `CC(C(N)=O)N(c1ccc(F)c(F)c1)c1nc(N)c(C(=O)c2ccccc2)s1` (racemic) [Example 32, rac-2-(N-(4-amino-5-benzoyl-thiazol-2-yl)-3,4-difluoro-anilino)propanamide]: 38.7 nM; for `CC(C(N)=O)N(c1ccc(F)cc1)c1nc(N)c(C(=O)c2ccc(OC(C)(C)C(=O)NCc3ccc(Cl)cc3)cc2)s1` (racemic) [Example 273, rac-2-[4-[4-amino-2-(N-(2-amino-1-methyl-2-oxo-ethyl)-4-fluoro-anilino)thiazole-5-carbonyl]phenoxy]-N-[(4-chlorophenyl)methyl]-2-methyl-propanamide]: 20 nM.
For the molecule `COc1ccc(C(=O)c2sc(N(c3ccc(F)cc3)C(C)C(N)=O)nc2C)cc1` (racemic) [Example 176, rac-2-(4-fluoro-N-[5-(4-methoxybenzoyl)-4-methyl-thiazol-2-yl]anilino)propanamide], the IC50 was determined as 91 nM.
Take `CC(C(N)=O)N(c1nc(N)c(C(=O)c2ccc(OC(F)F)cc2)s1)c1ccc(Cl)cc1F` (single isomer, unassigned) [Example 46.2, 2-(N-[4-amino-5-[4-(difluoromethoxy)benzoyl]thiazol-2-yl]-4-chloro-2-fluoro-anilino)propanamide]: the IC50 was determined as 5.69 nM.
For the molecule `CC(C(N)=O)N(c1ccc(F)cc1)c1nc(N)c(C(=O)c2ccc(OC(C)(C)C(N)=O)cc2)s1` (racemic) [Example 155, rac-2-[4-[4-amino-2-(N-(2-amino-1-methyl-2-oxo-ethyl)-4-fluoro-anilino)thiazole-5-carbonyl]phenoxy]-2-methyl-propanamide], the IC50 came to 200 nM.
As for `CC(C(N)=O)N(c1ccc(F)cc1)c1nc(N)c(C(=O)c2ccc(Cn3cccn3)cc2)s1` (racemic) [Example 179, rac-2-(N-[4-amino-5-[4-(pyrazol-1-ylmethyl)benzoyl]thiazol-2-yl]-4-fluoro-anilino)propanamide], the IC50 stood at 57 nM.
Same read-out and setting: the same measure for `COc1ccc(N(c2nc(N)c(C(=O)c3ccc(F)cc3)s2)C(C)C(N)=O)cc1` (racemic) [Example 18, rac-2-(N-[4-amino-5-(4-fluorobenzoyl)thiazol-2-yl]-4-methoxy-anilino)propanamide]: 207 nM.
Same read-out and setting: the same measure for `CCOC(=O)c1ccc(C(=O)c2sc(N(c3ccc(Cl)c(F)c3)C(C)C(N)=O)nc2N)cc1` (racemic) [Example 258, rac-Ethyl 4-[4-amino-2-(N-(2-amino-1-methyl-2-oxo-ethyl)-4-chloro-3-fluoro-anilino)thiazole-5-carbonyl]benzoate]: 19 nM; for `Cc1ccc(N(c2nc(N)c(C(=O)c3ccccc3)s2)C(C)C(N)=O)cn1` (racemic) [Example 234, rac-2-[(4-amino-5-benzoyl-thiazol-2-yl)-(6-methyl-3-pyridyl)amino]propanamide]: 1640 nM.
Same read-out and setting: the same measure for `CC(C(N)=O)N(c1ccc(F)cc1)c1nc(N)c(C(=O)c2ccc(OCC(=O)NCCN3CCCCC3)cc2)s1` (racemic) [Example 89, rac-2-(N-[4-amino-5-[4-[2-oxo-2-[2-(1-piperidyl)ethylamino]ethoxy]benzoyl]thiazol-2-yl]-4-fluoro-anilino)propanamide]: 131 nM.
Take `CC(C(N)=O)N(c1ccc(OCc2ccccc2)cc1)c1nc(N)c(C(=O)c2ccccc2)s1` (racemic) [Example 199, rac-2-(N-(4-amino-5-benzoyl-thiazol-2-yl)-4-benzyloxy-anilino)propanamide]: the IC50 is 396 nM.
Take `COc1ccc(N(c2nc(N)c(C(=O)c3ccccc3)s2)C(C)C(N)=O)cc1` (racemic) [Example 66, rac-2-(N-(4-amino-5-benzoyl-thiazol-2-yl)-4-methoxy-anilino)propanamide]: the IC50 stood at 363 nM.
On the same count and under the same terms, the same measure for `CC(C(N)=O)N(c1ccc(F)cc1)c1nc(N)c(C(=O)c2ccc(Cl)cc2)s1` (single isomer, unassigned) [Example 38.1, 2-(N-[4-amino-5-(4-chlorobenzoyl)thiazol-2-yl]-4-fluoro-anilino)propanamide]: 2000 nM.
As to `COc1ccc(N(c2nc(N)c(C(=O)c3ccccc3)s2)C(C)C(N)=O)cc1Cl` (racemic) [Example 17, rac-2-(N-(4-amino-5-benzoyl-thiazol-2-yl)-3-chloro-4-methoxy-anilino)propanamide], the IC50 was 261 nM.
The same measure, in the same setting: the same measure for `CC(C(N)=O)N(c1ccc(Cl)c(F)c1)c1nc(N)c(C(=O)c2ccc(O)cc2)s1` (single isomer, unassigned; enantiomer 2) [Example 290, 2-(N-[4-amino-5-(4-hydroxybenzoyl)thiazol-2-yl]-4-chloro-3-fluoro-anilino)propanamide (enantiomer 2)]: 936 nM; for `CC(C(N)=O)N(c1ccc(OCc2ccccc2)cc1)c1nc(N)c(C(=O)c2ccc(OC(F)F)cc2)s1` (single isomer, unassigned) [Example 182.2, 2-(N-[4-amino-5-[4-(difluoromethoxy)benzoyl]thiazol-2-yl]-4-benzyloxy-anilino)propanamide]: 10500 nM.
For `CC(C(N)=O)N(c1ccc(F)cc1)c1nc(N)c(C(=O)c2ccc(N3CCC(C4COC4)CC3)nc2)s1` (racemic) [Example 277, rac-2-(N-[4-amino-5-[6-[4-(oxetan-3-yl)-1-piperidyl]pyridine-3-carbonyl]thiazol-2-yl]-4-fluoro-anilino)propanamide], the IC50 came to 494 nM.
Regarding `COc1ccc(C(=O)c2sc(N(c3ccc(OC(F)(F)F)c(Cl)c3)C(C)C(N)=O)nc2N)cc1` (racemic) [Example 222, rac-2-[N-[4-amino-5-(4-methoxybenzoyl)thiazol-2-yl]-3-chloro-4-(trifluoromethoxy)anilino]propanamide], the IC50 is 108 nM.
